Literature values as cited in patent US8431374B2, “Methods for the economical production of biofuel from biomass” (Gevo, Inc., priority 2007, dated 2013).
One block for each molecule: values may come before it.

How the values were obtained:
[1] = logarithm of the octanol:water partition coefficient
Klyveromyces marxianus = conditions: in binary combination (Ballesteros 2004)

log P [1]: 0.79
Structure (SMILES): CC(C)CO [isobutanol]

Solubility in water (20° C., given in words): miscible
Structure (SMILES): CC(C)O [2-propanol]

Second part, the molecule before the results:

Structure (SMILES): CCCCCCCCO [1-octanol]
solubility limit (octanol, two-phase system (Chen, Q. 1995)): < 1100 µg/mL

Structure (SMILES): COc1cc(C=O)ccc1O [Vanillin, vanillin]
reduction in both cell growth and fermentation (Klyveromyces marxianus): 90%

Structure (SMILES): CCC(C)O (centres unmarked) [2-butanol]
log P [1]: 0.6
